One may read the IC50 as the concentration that inhibits the measured activity by half.

For data set [1], the system named is HepG2 cells. The settings on record: cited from earlier work.
Data set [2] relates to HepG2 cells. The experiment in a line: cells. The conditions noted are these: Homo sapiens; for IC50: HepG2, read-out: MMP assays IC50 (µM) HepG2; for Emax: HepG2, read-out: MMP assays efficacy (%) HepG2.
In data set [3] the test system is rat primary hepatocytes. The experiment in a line: MMP assay in rat primary hepatocytes. The settings on record: for IC50: Rattus norvegicus, Hepatocyte, read-out: MMP assays IC50 (µM) Rat Hepatocytes.
The subject of data set [4] is rat primary hepatocytes.
[5] abbreviates: read-out: MMP assays IC50 (µM) qHTS-HepG2.
Where [6] appears, read: read-out: MMP assays IC50 (µM), qHTS-HepG2.

Counter-ions that a name gives are not always drawn. Like-named read-outs stand apart in the source and are kept apart here.

For `C(=NC1CCCCC1)=NC1CCCCC1` [Dicyclohexylcarbodiimide], in the data set on HepG2 cells [1], the “MMP assays efficacy (%) qHTS-HepG2” value was -69±18%. Also, the IC50 in the data set on HepG2 cells [1] (setting [5]) was 0.3 ± 0.2 µM. For the same compound, in the data set with HepG2 cells [2], the half-maximal inhibitory concentration (IC50) turned out to be 0.0178 µM and the Emax worked out at 39%. In the data set on rat primary hepatocytes [3], the “MMP assays IC50 (µM) Rat Hepatocytes” value is “inactive”. For the same compound, the “MMP assays efficacy (%) Rat Hepatocytes” value in the data set with rat primary hepatocytes [4] is “inactive”.
Take `O=S(=O)(c1ccc(Cl)cc1)c1ccc(Cl)cc1` [4,4'-Dichlorodiphenyl sulfone]: the “MMP assays efficacy (%) qHTS-HepG2” value with HepG2 cells [1] is reported as -99±22%. In addition, the figures for the IC50 in the data set on HepG2 cells [1] (setting [5]), in the data set with HepG2 cells [2] and with rat primary hepatocytes [3] were 21.3 ± 6.06 µM, 35.5 µM and 29.9 ± 2.43 µM, respectively. Further, the Emax in the data set on HepG2 cells [2] worked out at 96%. In the data set with rat primary hepatocytes [4], the “MMP assays efficacy (%) Rat Hepatocytes” value is recorded as -72±26%.
For the compound `O=C(Nc1ccc(Cl)c(Cl)c1)c1cc(Cl)cc(Cl)c1O` [3,5-Dichlorosalicyl-3,4-dichloroanilide], the “MMP assays efficacy (%) qHTS-HepG2” value with HepG2 cells [1] is given as -105±6%. The IC50 is 0.22 ± 0.09 µM in the data set with HepG2 cells [1] (setting [5]), 0.11 µM with HepG2 cells [2] and 0.38 ± 0.03 µM in the data set with rat primary hepatocytes [3]. Also, the Emax in the data set on HepG2 cells [2] amounted to 93%. For the same compound, the “MMP assays efficacy (%) Rat Hepatocytes” value with rat primary hepatocytes [4] is on record as -67±6%.
With `CS(=O)(=O)Nc1ccc([N+](=O)[O-])cc1Oc1ccccc1` [Nimesulide], the “MMP assays efficacy (%) qHTS-HepG2” value in the data set with HepG2 cells [1] is -101±6%. For the same compound, the IC50 was 3.87 ± 0.23 µM with HepG2 cells [1] (setting [6]), 4.16 µM with HepG2 cells [2] and 2.74 ± 0.35 µM in the data set on rat primary hepatocytes [3]. The Emax in the data set with HepG2 cells [2] was 120%. Besides, the “MMP assays efficacy (%) Rat Hepatocytes” value with rat primary hepatocytes [4] was -117±42%.
Take `Oc1ccccc1-c1ccccc1` [Compound 2-Phenylphenol]: in the data set on HepG2 cells [1], the “MMP assays efficacy (%) qHTS-HepG2” value was -97±7%. Also, the concentration for half-maximal inhibition (IC50) in the data set with HepG2 cells [1] (setting [5]) is 17.9 ± 1.41 µM; in the data set on HepG2 cells [2], 28.2 µM; in the data set with rat primary hepatocytes [3] it was 53.2 ± 4.32 µM. Also, in the data set with HepG2 cells [2], the Emax came to 108%. Also, the “MMP assays efficacy (%) Rat Hepatocytes” value in the data set on rat primary hepatocytes [4] is listed as -75±20%.
As for `COc1cccc2c1C(=O)c1c(O)c3c(c(O)c1C2=O)C[C@@](O)(C(=O)CO)C[C@@H]3O[C@H]1C[C@H](N)[C@H](O[C@@H]2CCCCO2)[C@H](C)O1` [Pirarubicin], the “MMP assays efficacy (%) qHTS-HepG2” value with HepG2 cells [1] is listed as -68±19%. Moreover, the concentration for half-maximal inhibition (IC50) in the data set on HepG2 cells [1] (setting [6]) is 0.6 ± 0.46 µM; in the data set on HepG2 cells [2], 0.69 µM; with rat primary hepatocytes [3], 0.03 µM. The Emax in the data set with HepG2 cells [2] was determined as 53%. Besides, in the data set with rat primary hepatocytes [4], the “MMP assays efficacy (%) Rat Hepatocytes” value is -39±8%.
For `O=C1CN(/N=C/c2ccc(-c3ccc([N+](=O)[O-])cc3)o2)C(O)=N1` [Dantrolene sodium], in the data set with HepG2 cells [1], the “MMP assays efficacy (%) qHTS-HepG2” value was -85±8%. The concentration for half-maximal inhibition (IC50) is 4.35 ± 1.73 µM with HepG2 cells [1] (setting [5]), 3.46 µM in the data set on HepG2 cells [2] and 15.5 ± 1.78 µM in the data set on rat primary hepatocytes [3]. In the data set with HepG2 cells [2], the Emax was determined as 73%. Also, the “MMP assays efficacy (%) Rat Hepatocytes” value in the data set with rat primary hepatocytes [4] was -108±32%.
In the case of `O=[N+]([O-])c1ccc2c(c1)Cc1ccccc1-2` [Compound 2-Nitrofluorene], the “MMP assays efficacy (%) qHTS-HepG2” value in the data set on HepG2 cells [1] is given as -53±5%. The IC50 was 12.2 ± 0.86 µM with HepG2 cells [1] (setting [5]), 50.1 µM with HepG2 cells [2] and 38.1 ± 9.22 µM in the data set with rat primary hepatocytes [3]. The Emax in the data set on HepG2 cells [2] was 41%. The “MMP assays efficacy (%) Rat Hepatocytes” value in the data set on rat primary hepatocytes [4] is on record as -57±0%.
For the compound `CC(NCCC(c1ccccc1)c1ccccc1)c1ccccc1` (stereo not drawn) [Fendiline hydrochloride], the “MMP assays efficacy (%) qHTS-HepG2” value in the data set on HepG2 cells [1] is listed as -79±12%. The half-inhibitory concentration (IC50) in the data set on HepG2 cells [1] (setting [5]) is 10.3 ± 1.55 µM. For the same compound, in the data set on HepG2 cells [2], the IC50 was 9.75 µM and the Emax worked out at 87%. The “MMP assays IC50 (µM) Rat Hepatocytes” value in the data set with rat primary hepatocytes [3] was “inactive”. For the same compound, in the data set with rat primary hepatocytes [4], the “MMP assays efficacy (%) Rat Hepatocytes” value is “inactive”.
`Oc1c(Cl)cc(Cl)cc1Sc1cc(Cl)cc(Cl)c1O` [Sodium bithionolate]: in the data set on HepG2 cells [1], the “MMP assays efficacy (%) qHTS-HepG2” value is reported as -123±11%. Moreover, the half-maximal inhibitory concentration (IC50) in the data set with HepG2 cells [1] (setting [6]) was 0.91 ± 0.78 µM. Besides, in the data set on HepG2 cells [2], the IC50 turned out to be 0.89 µM and the Emax is 116%. The “MMP assays IC50 (µM) Rat Hepatocytes” value with rat primary hepatocytes [3] was “inactive”. For the same compound, the “MMP assays efficacy (%) Rat Hepatocytes” value in the data set with rat primary hepatocytes [4] is “inactive”.
`CCCCCCCCCCCCc1ccc(O)cc1` [Compound 4-Dodecylphenol]: the “MMP assays efficacy (%) qHTS-HepG2” value in the data set on HepG2 cells [1] is -96±3%. Moreover, the results for the IC50 with HepG2 cells [1] (setting [5]), with HepG2 cells [2] and in the data set with rat primary hepatocytes [3] were 3.18 ± 0.58 µM, 5.01 µM and 25.1 ± 21.8 µM, respectively. In addition, the Emax with HepG2 cells [2] worked out at 102%. Besides, the “MMP assays efficacy (%) Rat Hepatocytes” value in the data set with rat primary hepatocytes [4] is -53±17%.
For `O=[N+]([O-])c1ccc2ccc3cccc4ccc1c2c34` [Compound 1-Nitropyrene], the “MMP assays efficacy (%) qHTS-HepG2” value in the data set with HepG2 cells [1] is given as -99±6%. Besides, the IC50 was 2.01 ± 2.06 µM in the data set with HepG2 cells [1] (setting [5]), 6.31 µM in the data set on HepG2 cells [2] and 16.9 ± 4.77 µM in the data set on rat primary hepatocytes [3]. The Emax in the data set on HepG2 cells [2] amounted to 68%. The “MMP assays efficacy (%) Rat Hepatocytes” value in the data set with rat primary hepatocytes [4] is listed as -60±24%.
For `COP(=S)(OC)Oc1cc(Cl)c(Br)cc1Cl` [Bromofos], in the data set on HepG2 cells [1], the “MMP assays efficacy (%) qHTS-HepG2” value was -105±8%. Moreover, the IC50 in the data set on HepG2 cells [1] (setting [5]) was 7.7 ± 1.63 µM; in the data set with HepG2 cells [2], 8.91 µM; with rat primary hepatocytes [3], 22.7 ± 10.4 µM. In addition, in the data set with HepG2 cells [2], the Emax came out at 95%. The “MMP assays efficacy (%) Rat Hepatocytes” value in the data set on rat primary hepatocytes [4] is listed as -111±7%.
With `CCCCCCCC(=O)Oc1c(Br)cc(C#N)cc1Br` [Bromoxynil octanoate], in the data set with HepG2 cells [1], the “MMP assays efficacy (%) qHTS-HepG2” value was -109±13%. Besides, the IC50 with HepG2 cells [1] (setting [5]) was 15.3 ± 5.08 µM; with HepG2 cells [2], 31.6 µM; in the data set with rat primary hepatocytes [3] it was 28.6 ± 22.7 µM. In the data set on HepG2 cells [2], the Emax turned out to be 125%. In addition, the “MMP assays efficacy (%) Rat Hepatocytes” value with rat primary hepatocytes [4] is -38±2%.
For the compound `O=[N+]([O-])c1ccc(Nc2ccccc2)cc1` [Compound 4-Nitro-N-phenylaniline], the “MMP assays efficacy (%) qHTS-HepG2” value in the data set with HepG2 cells [1] is recorded as -99±15%. Moreover, the IC50 with HepG2 cells [1] (setting [5]) is 7.43 ± 6.54 µM; with HepG2 cells [2], 8.91 µM; in the data set with rat primary hepatocytes [3], 23.9 ± 7.05 µM. Further, the Emax with HepG2 cells [2] was found to be 94%. Further, the “MMP assays efficacy (%) Rat Hepatocytes” value with rat primary hepatocytes [4] was -93±7%.
Take `O=C(NC(=O)c1c(F)cccc1F)Nc1cc(Cl)c(Oc2ncc(C(F)(F)F)cc2Cl)c(Cl)c1` [Chlorfluazuron]: the “MMP assays efficacy (%) qHTS-HepG2” value in the data set on HepG2 cells [1] is listed as -114±19%. The IC50 is 8.93 ± 4.57 µM in the data set on HepG2 cells [1] (setting [5]), 12.6 µM in the data set on HepG2 cells [2] and 29.3 ± 1.99 µM with rat primary hepatocytes [3]. The Emax in the data set on HepG2 cells [2] worked out at 98%. The “MMP assays efficacy (%) Rat Hepatocytes” value in the data set with rat primary hepatocytes [4] is recorded as -79±42%.
`Oc1c(Cl)cc(Cl)c2cccnc12` [CHLOROXINE]: the “MMP assays efficacy (%) qHTS-HepG2” value with HepG2 cells [1] is given as -75±22%. Further, in the data set on HepG2 cells [1] (setting [5]), the IC50 is 10.6 ± 1.22 µM. Also, in the data set with HepG2 cells [2], the IC50 amounted to 9.75 µM and the Emax stood at 99%. In the data set with rat primary hepatocytes [3], the “MMP assays IC50 (µM) Rat Hepatocytes” value is “inactive”. Besides, the “MMP assays efficacy (%) Rat Hepatocytes” value in the data set on rat primary hepatocytes [4] is “inactive”.
Turning to `COC1C(O)CC(OC2CC(Oc3cc4cc5c(c(O)c4c(O)c3C)C(=O)[C@@H](OC3CC(OC4CC(OC6CC(C)(O)C(OC(C)=O)C(C)O6)C(O)C(C)O4)C(O)C(C)O3)[C@H]([C@H](OC)C(=O)[C@@H](O)[C@@H](C)O)C5)OC(C)C2OC(C)=O)OC1C` (stereo partly drawn) [chromomycin], the “MMP assays efficacy (%) qHTS-HepG2” value in the data set on HepG2 cells [1] is recorded as -84±13%. Besides, the IC50 in the data set with HepG2 cells [1] (setting [5]) is 12.3 ± 0.84 µM. For the same compound, in the data set with HepG2 cells [2], the IC50 came to 35.5 µM and the Emax came to 44%. Further, the “MMP assays IC50 (µM) Rat Hepatocytes” value in the data set on rat primary hepatocytes [3] was “inactive”. The “MMP assays efficacy (%) Rat Hepatocytes” value with rat primary hepatocytes [4] is “inactive”.
On to `CS(=O)(=O)c1ccc(C(=O)C2C(=O)CCCC2=O)c([N+](=O)[O-])c1` [Mesotrione], for which the “MMP assays efficacy (%) qHTS-HepG2” value in the data set on HepG2 cells [1] is listed as -75±17%. In the data set on HepG2 cells [1] (setting [6]), the half-maximal inhibitory concentration (IC50) was 18 ± 12 µM. In the data set with HepG2 cells [2], the 50% inhibitory concentration (IC50) worked out at 39.8 µM and the Emax worked out at 72%. Moreover, the “MMP assays IC50 (µM) Rat Hepatocytes” value in the data set with rat primary hepatocytes [3] is “inactive”. In addition, the “MMP assays efficacy (%) Rat Hepatocytes” value in the data set with rat primary hepatocytes [4] was “inactive”.
